The record followed here is ChEMBL document CHEMBL5576147, “Development of Brain Penetrant Pyridazine Pantothenate Kinase Activators” (J Med Chem, 2024).

Series [1] in a line: in vitro. More on the design: dose or concentration left out as unconfirmed. The note with it: human, liver microsomes.
Series [2] can be described thus: in vitro. Also on record: dose or concentration left out as unconfirmed. The note with it: mouse, liver microsomes.

In the case of `CC(C)c1ccc(CC(=O)N2CCN(c3ccc(C#N)nn3)CC2)cc1`, the CLint scaled at 4 h in “in vitro [1]” is 175 mL/min/kg; in “in vitro [2]”, 408 mL/min/kg.
